Patent US12285034B2, “Human and non-human animal use of microbial anaplerotic oil” (HELIAE DEVELOPMENT, LLC, priority 2017, dated 2025)
Values joined by “and” are separate entries in the source; they are usually repeats but may differ in a detail not shown here. Identical values can stand only once. Like-named read-outs stand apart in the source and are kept apart here.

What was measured:
[1] = test system: Aurantiochytrium acetophilum HS399; test: Propionic acid toxicity lethal threshold (Example 8); type: cell-based; conditions: for lethal threshold, Propionate Treatment (initial propionate): initial propionate approach, chronic, metric CDW, pH 6.4
[2] = test system: Aurantiochytrium acetophilum HS399; test: Cyanocobalamin and propionate deposition, flask (Example 10); type: cell-based; conditions: for Final Propionate: initial 3 g/L; for Cell dry weight: propionate 3 g/L
[3] = test system: Aurantiochytrium acetophilum HS399
Experimental: In one implementation, a 250 mL Erlenmeyer flask can be used to cultivate A. acetophilum HS399.
In one implementation, a 250 mL Erlenmeyer flask can be used to cultivate A. acetophilum HS399. […] Cell dry weights may be analyzed using a filtration method. Ammonia can be measured using a Cedex bio-analyzer (Roche). […] The fatty acid profile of the biomass can be analyzed using gas chromatography.

[4] = test system: Aurantiochytrium acetophilum HS399; test: Propionate concentration and OCFA titers, flask (Example 13); type: cell-based; conditions: 96 h
Excerpt: The trace element solution contains (g/L): […] The vitamin solution contains (mg/L): thiamine (100) and biotin (0.5). […] The washed biomass is freeze dried.

Y. lipolytica = test: Model of cytoplasmic propionate in Yarrowia lipolytica; conditions: 2 g/L d propionic fed, pH 3
Excerpt: In this aspect, while the propionate and free proton form enters the microalgae cell through a monocarboxylic symport structure, propionic acid is membrane permeable and may be diffused directly into the microalgae cell. Therefore, in this aspect, the uptake of propionate can be controlled by the cell, and the uptake of propionic acid may not be controlled by the cell. As an example, the uncontrolled uptake of propionic acid presumably lowers the internal Aurantiochytrium cell pH; in turn, the cell attempts to maintain its pH homeostasis by pumping protons out of the cell. […] In one implementation, the change in pH may be calculated with the following equation derived from the Henderson and Hasselbalch equation: […]
In these implementations, the results illustrate that growth of the Y. lipolytica may not be affected by up to 2 g/L d propionic fed despite the low pH (3) present.

mold and bacteria = conditions: low levels; cited from earlier work
[5] = test system: Aurantiochytrium acetophilum HS399; remark: listed apart in the source
Experimental: The cultures are incubated in an orbital shaker at 180 rpm and 27° C.
Respective Erlenmeyer flasks contain 100 mL of a medium supplemented with (g/L): dextrose (100), ammonium acetate (4.6), NaCl (12.5), MgSO4 7H2O (2.5), KH2PO4 (0.5), KCl (0.5) and CaCl2 (0.1). This medium also contains trace element solution (5 ml/L) and vitamin solution (1 ml/L). The trace element solution contains (g/L): EDTA di-sodium salt (6), FeCl3 6H2O (0.29), […] (6.84), MnCl2 4H2O (0.86), ZnCl2 (0.06), CoCl2 6H2O (0.026), NiSO4 6H2O (0.052), CuSO4 5H2O (0.002), Na2MoO4H2O (0.005). The vitamin solution contains (mg/L): thiamine (100), biotin (0.5) and cyanocobalamin (0.5). All culture materials can be autoclaved (e.g., 121° C., 15 min) and the media can be filter sterilized before use. […] Daily samples are collected to analyze the cell dry weight, residual glucose, culture pH (see FIG. 9), and lipid and fatty acid composition of the cultures. Cell dry weights (CDW) can be analyzed by filtration (e.g., 0.2 μm filter media) using a vacuum, and washed with a solution of ammonium bicarbonate. Residual glucose can be analyzed using colorimetric methods based on glucose […] activity. Biomass for lipid analysis is centrifuged and washed using purified water. The washed biomass is freeze dried. Total lipids are analyzed using Folch method (AOAC 996.06) and the FAMES re analyzed by gas chromatography using nonadecanoic (C19:0) acid as an internal standard.

[6] = test system: Aurantiochytrium acetophilum HS399; test: Single vs two-stage fermentation with propionic acid (Example 12); type: cell-based; conditions: propionic acid fed
Excerpt: Further, in this implementation, during the lipid phase, no additional nitrogen is fed, and the cell accumulated the lipids. In the single stage mode, half of the nitrogen (2.5 g/L NH3) can be batch fed, while the other half (2.5 g/L NH3) can be fed along with the glucose until the end of the fermentation. In this implementation, both treatments receive substantially the same nutrients; however, the single stage mode grows and accumulates lipids in a coordinated way throughout the fermentation. The single stage system can be characterized by an early lipid accumulation. […] Each of the four treatments can be cultured in duplicate (n=2) fermenters. […] As illustrated, propionic acid slows down the growth on both systems, but the two-stage system provides a better growth rate than the single stage system in the presence of propionate. […] This implementation illustrates that the traditional two stage approach to lipid accumulation may be preferable to produce OCFAs.

[7] = 116 h, propionate 3 + 3 + 3 g/L
[8] = propionate 3 + 3 + 3 g/L (166 h)

## CCC(=O)O [Propionate, propionic acid]
[1]; listed as Propionic acid
  lethal threshold, Propionate Treatment (initial propionate): 20 g/L
[1]; listed as propionate
  lethal threshold, Propionate Treatment (initial propionate): 20 g/L and 30 g/L
[1]; pH drift approach, acute, metric OUR, pH 5.3
  lethal threshold, Propionate Treatment: 2.3 ± 0.1 g/L
[1]; residual propionate 2.3-2.4 g/L, pH ramp 7 to 4
  pH at which oxygen uptake rate dropped (tolerance limit): 5.3
[2]; cyanocobalamin 0 μM, listed as Propionic acid
  Propionate deposition: 99.9 ± 5.8 % fed
[2]; cyanocobalamin 0 μM, listed as propionate
  Propionate deposition: 99.5 % fed
[2]; cyanocobalamin 0.00037 μM
  Propionate deposition: 47.0 ± 0.9 % fed
  Final Propionate: 0.1 g/L
  Cell dry weight: 32.0 ± 0.7 g/L
[2]; cyanocobalamin 0.37 μM
  Propionate deposition: 10.3 ± 1.0 % fed
  Final Propionate: 0.06 g/L
  Cell dry weight: 37.0 ± 1.4 g/L
[2]; cyanocobalamin 0 μM
  Final Propionate: 0.36 g/L
  Cell dry weight: 35.0 ± 1.2 g/L
[3]; 0 + 3 g/L fed in lipid phase
  Propionate deposition: 58.8 ± 1.9%
[3]; 0 + 3 g/L fed in lipid phase, listed as propionate
  Propionate deposition: 58.8%
[3]; 3 g/L fed in growth phase
  Propionate deposition: 53.0 ± 1.0%
[3]; 3 g/L fed in growth phase, listed as propionate
  Propionate deposition: 53%
[4]; propionate 2 g/L
  OCFA: 30.7 ± 1.8 % TFA
  Total Fatty Acids: 54.8 ± 5.6 % DW
[4]; propionate 3 g/L
  OCFA: 50.8 ± 1.1 % TFA
  Total Fatty Acids: 56.2 ± 0.6 % DW
[4]; propionate 4 g/L
  OCFA: 63.0 ± 2.5 % TFA
  Total Fatty Acids: 39.2 ± 12.4 % DW
[4]; propionate 5 g/L
  OCFA: 64.6 ± 0.3 % TFA
  Total Fatty Acids: 41.0 ± 3.4 % DW
Y. lipolytica
  accumulation of cytoplasmic propionate: 328 g/L
Mold and bacteria
  level inhibiting growth of mold and bacteria: < 1 % by weight
[5]; 68 h, propionate 3 + 3 + 3 g/L
  OCFA: 60.6 ± 0.4 % TFA
  Total Fatty Acids: 40.7 ± 1.7 % DW
[5]; 68 h, propionate 3 + 3 g/L
  OCFA: 60.9 ± 0.6 % TFA
  Total Fatty Acids: 44.5 ± 4.5 % DW
[5]; 68 h, propionate 3 g/L
  OCFA: 52.9 ± 7.3 % TFA
  Total Fatty Acids: 45.1 ± 3.0 % DW
[5]; 70 h, fed batching of 9 g/L propionate
  growth (cell dry weight): ~15 g/L
[5]; 96 h, propionate 3 + 3 + 3 g/L
  Total Fatty Acids: 56.3 ± 1.2 % DW
  Total Lipids: 70.0 ± 1.0 % DW
[5]; 96 h, propionate 3 + 3 + 3 g/L (P9)
  OCFA: 62.9 ± 0.2 % TFA
[5]; 96 h, propionate 3 + 3 + 3 g/L (P9), listed as propionate
  OCFA: 62.4 % TFA
[5]; 96 h, propionate 3 + 3 g/L
  Total Fatty Acids: 62.5 ± 0.3 % DW
  Total Lipids: 73.3 ± 1.5 % DW
[5]; 96 h, propionate 3 + 3 g/L (P6)
  OCFA: 62.8 ± 0.2 % TFA
[5]; 96 h, propionate 3 + 3 g/L (P6), listed as propionate
  OCFA: 62.4 % TFA
[5]; 96 h, propionate 3 g/L
  OCFA: 24.0 ± 1.0 % TFA
  Total Fatty Acids: 66.8 ± 4.8 % DW
  Total Lipids: 81.0 ± 1.0 % DW
[5]; [7]
  OCFA: 60.8 ± 0.2 % TFA
  Total Fatty Acids: 63.1 ± 2.0 % DW
  Total Lipids: 74.0 ± 1.0 % DW
[5]; 116 h, propionate 3 + 3 + 3 g/L, listed as propionic acid
  OCFA: 60.4 % TFA
[5]; 116 h, propionate 3 + 3 g/L
  OCFA: 57.5 ± 1.4 % TFA
  Total Fatty Acids: 70.8 ± 0.6 % DW
  Total Lipids: 77.7 ± 0.6 % DW
[5]; 116 h, propionate 3 g/L
  OCFA: 22.8 ± 0.8 % TFA
  Total Fatty Acids: 71.7 ± 4.3 % DW
  Total Lipids: 74.8 ± 0.3 % DW
[5]; as low as, pH of 7
  non-lethal but growth inhibitory concentration: 1 g/L
[5]; [8]
  OCFA Productivity: 2.56 ± 0.04 g/L/day
  Propionate deposition: 39.5 ± 1.7%
[5]; propionate 3 + 3 g/L (116 h)
  OCFA Productivity: 2.89 ± 0.06 g/L/day
  Propionate deposition: 65.0 ± 0.6%
[5]; propionate 3 g/L (96 h)
  OCFA Productivity: 1.53 ± 0.02 g/L/day
  Propionate deposition: 57.0 ± 0.9%
[5]; three doses of 3 g/L, 60.4% OCFAs of the 63.1% TFA
  OCFAs of total DW of algal product: 38.1%
[6]; single stage, 96 h
  Productivity: 20.7 g/L/day
[6]; single stage, batch time 96 h
  Biomass Yield: 82.5 g/L
[6]; two stage, 89 h
  Productivity: 34.1 g/L/day
[6]; two stage, batch time 89 h
  Biomass Yield: 125.8 g/L
